Results as given in ChEMBL document CHEMBL1158720, “Ambigol C and 2,4-dichlorobenzoic acid, natural products produced by the terrestrial cyanobacterium Fischerella ambigua” (J Nat Prod, 2005).
Converted amounts (≈) assume the structure as drawn. The source made the active and inactive calls. The calls are words filed in the database; no cut-off is given here.

Experiments:
Escherichia coli = assay: Antimicrobial activity against Escherichia coli at 50 ug/filter disk; assay type: functional
Priestia megaterium = assay: Antimicrobial activity against Bacillus megaterium at 50 ug/filter disk; assay type: functional
Microbotryum violaceum = assay: Antimicrobial activity against […] at 50 ug/filter disk; assay type: functional
[1] = tested on: Aspergillus pseudoglaucus; assay: Antimicrobial activity against Eurotium repens at 50 ug/filter disk; assay type: functional
Fusarium oxysporum = assay: Antimicrobial activity against Fusarium oxysporum at 50 ug/filter disk; assay type: functional
Mycotypha microspora = assay: Antimicrobial activity against Mycotypha microspora at 50 ug/filter disk; assay type: functional
[Chlorella] fusca = Antimicrobial activity against Chlorella fusca at 50 ug/filter disk; assay type: functional, Scenedesmus fuscus
[2] = tested on: Mycobacterium tuberculosis; assay: Antimicrobial activity against Mycobacterium tuberculosis; assay type: functional
Plasmodium falciparum [3] = assay: Antiplasmodial activity against chloroquine-resistant Plasmodium falciparum K1; assay type: functional, organism-based
Plasmodium falciparum [4] = assay: Antiplasmodial activity against chloroquine-sensitive Plasmodium falciparum NF54; assay type: functional, organism-based
Trypanosoma cruzi = assay: Antitrypanosomal activity against Trypanosoma cruzi trypomastigotes; assay type: functional
[5] = tested on: Trypanosoma brucei rhodesiense; assay: Antitrypanosomal activity against Trypanosoma brucei rhodesiense trypomastigotes; assay type: functional
Biomphalaria glabrata = assay: Molluscicidal activity against Biomphalaria glabrata at 100 ug/ml; assay type: functional, organism-based
L6 = assay: Cytotoxicity against rat L6 cells; assay type: functional

Compound	inhibition zone (IZ) (Escherichia coli)	inhibition zone (IZ) (Priestia megaterium)	inhibition zone (IZ) (Microbotryum violaceum)	inhibition zone (IZ) [1]	inhibition zone (IZ) (Fusarium oxysporum)	inhibition zone (IZ) (Mycotypha microspora)	inhibition zone (IZ) ([Chlorella] fusca)	MIC [2]	IC50 (Plasmodium falciparum [3])	IC50 (Plasmodium falciparum [4])	MIC (Trypanosoma cruzi)	MIC [5]	Activity (Escherichia coli)	Activity (Biomphalaria glabrata)	MIC (L6)	Activity [1]	Activity (Fusarium oxysporum)	Activity (Mycotypha microspora)	Activity ([Chlorella] fusca; Scenedesmus fuscus)
CN[C@@H]1[C@H](O[C@H]2[C@H](O[C@H]3[C@H](O)[C@@H](O)[C@H](N=C(N)N)[C@@H](O)[C@@H]3N=C(N)N)O[C@@H](C)[C@]2(O)C=O)O[C@@H](CO)[C@H](O)[C@H]1O.CN[C@@H]1[C@H](O[C@H]2[C@H](O[C@H]3[C@H](O)[C@@H](O)[C@H](N=C(N)N)[C@@H](O)[C@@H]3N=C(N)N)O[C@@H](C)[C@]2(O)C=O)O[C@@H](CO)[C@H](O)[C@H]1O.O=S(=O)(O)O.O=S(=O)(O)O.O=S(=O)(O)O [STREPTOMYCIN SULFATE]	4 mm	4 mm	4 mm	4 mm	4 mm	4 mm	4 mm	–	–	–	–	–	–	–	–	–	–	–	–
CO[C@H]1/C=C/O[C@@]2(C)Oc3c(C)c(O)c4c(O)c(c(/C=N/N5CCN(C)CC5)c(O)c4c3C2=O)NC(=O)/C(C)=C\C=C\[C@H](C)[C@H](O)[C@@H](C)[C@@H](O)[C@@H](C)[C@H](OC(C)=O)[C@@H]1C [RIFAMPIN]	–	–	–	–	–	–	–	0.125 µg/mL (≈ 0.152 µM)	–	–	–	–	–	–	–	–	–	–	–
C[C@@H]1CC[C@H]2[C@@H](C)C(=O)O[C@@H]3O[C@@]4(C)CC[C@@H]1[C@]32OO4 [ARTEMISININ]	–	–	–	–	–	–	–	–	0.001 µg/mL (≈ 0.00354 µM)	0.003 µg/mL (≈ 0.0106 µM)	–	–	–	–	–	–	–	–	–
Nc1nc(N)nc(Nc2ccc([As]3SCC(CO)S3)cc2)n1 (configuration not stated) [MELARSOPROL]	–	–	–	–	–	–	–	–	–	–	0.011 µg/mL	0.011 µg/mL	–	–	–	–	–	–	–
Oc1c(Cl)cc(Cl)cc1-c1c(Cl)cc(Cl)c(Oc2ccc(Cl)cc2Cl)c1O [AMBIGOL A]	–	8 mm	7 mm	7 mm	8 mm	4 mm	3 mm	64 µg/mL (≈ 132 µM)	0.846 µg/mL (≈ 1.74 µM)	1.62 µg/mL (≈ 3.35 µM)	33 µg/mL (≈ 68 µM)	33 µg/mL (≈ 68 µM)	inactive	Active	33 µg/mL (≈ 68 µM)	–	–	–	–
Oc1c(Cl)c(Oc2ccc(Cl)cc2Cl)cc(Oc2ccc(Cl)cc2Cl)c1Cl [AMBIGOL C]	–	7 mm	5 mm	–	–	–	–	> 128 µg/mL	1.54 µg/mL (≈ 3.17 µM)	2.5 µg/mL (≈ 5.15 µM)	100 µg/mL (≈ 206 µM)	11 µg/mL (≈ 22.7 µM)	inactive	inactive	100 µg/mL (≈ 206 µM)	inactive	inactive	inactive	inactive
Clc1ccc(COC(Cn2ccnc2)c2ccc(Cl)cc2Cl)c(Cl)c1 (configuration not stated) [MICONAZOLE]	20 mm	20 mm	20 mm	20 mm	20 mm	20 mm	20 mm	–	–	–	–	–	–	–	–	–	–	–	–
